“And” between values parts separate entries of the source, which are not always exact repeats. Identical values can stand only once. Like-named read-outs stand apart in the source and are kept apart here.
How the values were obtained:
[1] = system: Karpas 422; assay: Cell proliferation assay (14 days), Karpas 422
Protocol: Cells were seeded in 96-well culture plates at a density of 2500 cells/well in RPMI-1640 medium (Sigma-
Aldrich) supplemented with 10% FBS (Gibco). Compounds were initially dispensed into 96-well U-bottom
plates using an Echo 550 acoustic dispenser (Labcyte Inc.), then diluted in RPMI-1640 medium and
transferred onto the cells. Cells were treated with 8 compound concentrations in duplicate, ranging from
with compound for 14 days, with medium changes at days 3, 7 and 10 carried out as follows: fresh 96-well
cell culture plates were prepared containing 100 µl medium plus compound at the assay concentrations
(white plates were used on day 10 to optimise luminescence measurement). Assay plates containing cells
were vortexed to mix and cell density in one control well was counted using a Coulter Z2 cell counter
(Beckman Coulter). The volume of medium containing 2500 cells in the control well was calculated and this volume of cells was transferred from every well of the assay plates to the corresponding well of the fresh plates containing compound. After 14 days, CellTiter Glo reagent (Promega) was added to the medium in each well of the assay plate at a ratio of 1:2, mixed on a plate shaker, then incubated at room temperature for 10 minutes. Luminescence was measured using an Envision plate reader (Perkin Elmer) and the relative luminescence at each compound concentration, compared to DMSO alone, was calculated. GI50 were determined using a 4-parameter curve fit in Dotmatics (Bishops Stortford, UK).

[2] = in vitro; assay type: in vitro ADME; conditions: BALB/c; mouse plasma, rapid equilibrium dialysis; read-out: mouse (BALB\c) PPB (converted)
[3] = biological target: BCL6 in Karpas 422 cells (Homo sapiens, UniProt P41182); assay: cell-based
Protocol: 3.2 Mesoscale Discovery (MSD) Degradation Assay
An MSD assay was developed for screening of compounds to determine the degradation of endogenous BCL6 in OCI-Ly1 cells. Briefly, test compounds in DMSO or DMSO alone to a total of 1332.5 nL/well were dispensed to a 96-well Nunc™ Edge 2 plate (ThermoFisher Scientific, 267544) using an Echo® 550 acoustic […]
supplemented with 10% heat-inactivated fetal bovine serum (Sera Plus, PAN Biotech, P30-3702) were […]
incubation at 37 °C + 5% CO2 the plate was centrifuged at 300 x g for 5 minutes. […]
plate washer for all wash and aspiration steps, media was removed and cells were rinsed with PBS, centrifuged as before and PBS removed. Cells were lysed in 50 µL ice-cold lysis buffer at pH 7.4 containing 50 mM Tris-HCl, 150 mM NaCl, 1 % Triton X-100 (v/v), 1 mM PMSF, 1 mM activated sodium vanadate, 1 mM EDTA, phosphatase inhibitors 2 and 3 (1:50 dilution) and protease inhibitor cocktail (1:100 dilution).
20 °C or continuing the assay. A 96-well MSD standard bind plate (MSD, L15XA-3) which was coated overnight with 1 µg/mL anti-human BCL6 goat antibody in PBS (R&D Systems, AF5046) was blocked in 3% BSA in TBS + 0.1% Tween-20 for 1 hour with shaking. Wells were emptied thoroughly before 40 µL/well of lysate was transferred from the cell plate. The MSD plate was incubated at RT for 1 hour with shaking then washed three times with TBS + 0.1 % Tween-20. Antibodies were prepared in TBS + 0.1% Tween-20 + 1% BSA. Anti-human BCL6 rabbit antibody (Cell Signalling Technology, 14895S) was added at 1:100 dilution at 25 µL/well. The plate was incubated and washed as before. MSD Sulfo-tag anti-rabbit detection antibody (MSD, R32AB-1) at 1:1000 dilution at 25 µL/well was added. The plate was incubated and washed as before and MSD Gold read buffer (MSD R92TG) at 1:1 dilution with water at 150 µL/well was added. The plate was read within 10 minutes on the MSD Quickplex reader. The % inhibition at each […]
3.3 Cell proliferation assay
Aldrich) supplemented with 10% FBS (Gibco). […]
transferred onto the cells.
Assay plates containing cells […]

[4] = in vitro; assay type: in vitro ADME; conditions: bovine; fraction unbound in OCI-Ly1 DC50 assay medium; read-out: fu,media
[5] = biological target: human BCL6 BTB domain (Homo sapiens, UniProt P41182); assay: biochemical; conditions: BCL6 TR-FRET IC50 individual replicates, single replicate values
[6] = In vivo pharmacokinetic study in Balb/C mice; design: species or system mouse; conditions: for Vd: 1 mg/kg, read-out: Vss
[7] = biological target: INSR (Homo sapiens, UniProt P06213); assay: SAFETYScan Kinases Binding, Inhibitor
Chain of INSR (P06213 28-1382, species assumed): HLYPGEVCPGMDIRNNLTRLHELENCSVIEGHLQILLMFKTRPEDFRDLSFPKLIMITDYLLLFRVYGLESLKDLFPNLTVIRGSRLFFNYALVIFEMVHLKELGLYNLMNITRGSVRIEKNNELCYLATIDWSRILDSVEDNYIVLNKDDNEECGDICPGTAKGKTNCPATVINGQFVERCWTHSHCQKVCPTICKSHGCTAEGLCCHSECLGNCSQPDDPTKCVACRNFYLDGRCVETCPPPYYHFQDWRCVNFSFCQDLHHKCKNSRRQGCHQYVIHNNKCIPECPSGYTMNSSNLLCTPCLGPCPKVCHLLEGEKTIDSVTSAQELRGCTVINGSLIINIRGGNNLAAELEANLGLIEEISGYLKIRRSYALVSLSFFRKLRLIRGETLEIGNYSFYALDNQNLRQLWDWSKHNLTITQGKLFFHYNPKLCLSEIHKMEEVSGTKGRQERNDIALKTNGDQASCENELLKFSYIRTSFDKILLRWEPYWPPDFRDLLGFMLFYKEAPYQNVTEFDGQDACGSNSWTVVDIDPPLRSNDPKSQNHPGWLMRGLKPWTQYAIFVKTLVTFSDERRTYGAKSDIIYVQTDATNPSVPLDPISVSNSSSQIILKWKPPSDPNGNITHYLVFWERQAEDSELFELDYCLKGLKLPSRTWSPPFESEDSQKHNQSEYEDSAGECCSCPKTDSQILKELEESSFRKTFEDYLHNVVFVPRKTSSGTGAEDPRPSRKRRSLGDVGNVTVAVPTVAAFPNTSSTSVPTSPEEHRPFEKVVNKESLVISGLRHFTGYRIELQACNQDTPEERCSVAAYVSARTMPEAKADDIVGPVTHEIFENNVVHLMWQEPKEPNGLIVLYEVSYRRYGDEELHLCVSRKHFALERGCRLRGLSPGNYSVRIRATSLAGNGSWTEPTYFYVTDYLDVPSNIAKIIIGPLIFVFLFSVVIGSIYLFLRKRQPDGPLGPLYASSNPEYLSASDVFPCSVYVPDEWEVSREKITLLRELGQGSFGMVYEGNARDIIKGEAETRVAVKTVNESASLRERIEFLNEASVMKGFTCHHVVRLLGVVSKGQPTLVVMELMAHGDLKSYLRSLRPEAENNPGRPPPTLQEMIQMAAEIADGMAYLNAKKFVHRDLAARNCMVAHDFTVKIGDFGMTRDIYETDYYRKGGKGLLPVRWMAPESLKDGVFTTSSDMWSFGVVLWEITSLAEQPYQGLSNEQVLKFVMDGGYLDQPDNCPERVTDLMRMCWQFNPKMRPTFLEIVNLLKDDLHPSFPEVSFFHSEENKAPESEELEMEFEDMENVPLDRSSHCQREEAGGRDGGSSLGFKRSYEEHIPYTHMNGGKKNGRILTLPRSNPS
Source text: (§1) Supplement jm1c02175_si_002.xlsx, sheet "SAFETYScan" | column: RC50 (uM); Max Response

[8] = biological target: LCK (Homo sapiens, UniProt P06239); assay: SAFETYScan Kinases Binding, Inhibitor
Chain of LCK (P06239 whole entry, species assumed): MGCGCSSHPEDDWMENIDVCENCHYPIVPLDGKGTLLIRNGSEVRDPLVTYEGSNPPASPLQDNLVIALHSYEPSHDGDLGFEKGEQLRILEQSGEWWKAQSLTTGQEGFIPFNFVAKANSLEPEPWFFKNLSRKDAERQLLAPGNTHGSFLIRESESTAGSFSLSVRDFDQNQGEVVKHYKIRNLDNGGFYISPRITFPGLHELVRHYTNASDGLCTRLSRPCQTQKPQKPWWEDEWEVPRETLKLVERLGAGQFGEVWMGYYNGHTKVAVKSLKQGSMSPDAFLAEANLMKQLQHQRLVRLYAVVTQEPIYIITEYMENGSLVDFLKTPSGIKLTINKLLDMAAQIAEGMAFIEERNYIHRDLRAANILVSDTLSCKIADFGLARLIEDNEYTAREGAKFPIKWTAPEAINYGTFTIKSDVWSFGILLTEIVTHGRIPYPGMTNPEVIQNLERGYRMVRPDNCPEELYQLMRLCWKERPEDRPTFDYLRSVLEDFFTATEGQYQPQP
Source text: as §1

[9] = biological target: ROCK1 (Homo sapiens, UniProt Q13464); assay: SAFETYScan Kinases Binding, Inhibitor
Chain of ROCK1 (Q13464 whole entry, species assumed): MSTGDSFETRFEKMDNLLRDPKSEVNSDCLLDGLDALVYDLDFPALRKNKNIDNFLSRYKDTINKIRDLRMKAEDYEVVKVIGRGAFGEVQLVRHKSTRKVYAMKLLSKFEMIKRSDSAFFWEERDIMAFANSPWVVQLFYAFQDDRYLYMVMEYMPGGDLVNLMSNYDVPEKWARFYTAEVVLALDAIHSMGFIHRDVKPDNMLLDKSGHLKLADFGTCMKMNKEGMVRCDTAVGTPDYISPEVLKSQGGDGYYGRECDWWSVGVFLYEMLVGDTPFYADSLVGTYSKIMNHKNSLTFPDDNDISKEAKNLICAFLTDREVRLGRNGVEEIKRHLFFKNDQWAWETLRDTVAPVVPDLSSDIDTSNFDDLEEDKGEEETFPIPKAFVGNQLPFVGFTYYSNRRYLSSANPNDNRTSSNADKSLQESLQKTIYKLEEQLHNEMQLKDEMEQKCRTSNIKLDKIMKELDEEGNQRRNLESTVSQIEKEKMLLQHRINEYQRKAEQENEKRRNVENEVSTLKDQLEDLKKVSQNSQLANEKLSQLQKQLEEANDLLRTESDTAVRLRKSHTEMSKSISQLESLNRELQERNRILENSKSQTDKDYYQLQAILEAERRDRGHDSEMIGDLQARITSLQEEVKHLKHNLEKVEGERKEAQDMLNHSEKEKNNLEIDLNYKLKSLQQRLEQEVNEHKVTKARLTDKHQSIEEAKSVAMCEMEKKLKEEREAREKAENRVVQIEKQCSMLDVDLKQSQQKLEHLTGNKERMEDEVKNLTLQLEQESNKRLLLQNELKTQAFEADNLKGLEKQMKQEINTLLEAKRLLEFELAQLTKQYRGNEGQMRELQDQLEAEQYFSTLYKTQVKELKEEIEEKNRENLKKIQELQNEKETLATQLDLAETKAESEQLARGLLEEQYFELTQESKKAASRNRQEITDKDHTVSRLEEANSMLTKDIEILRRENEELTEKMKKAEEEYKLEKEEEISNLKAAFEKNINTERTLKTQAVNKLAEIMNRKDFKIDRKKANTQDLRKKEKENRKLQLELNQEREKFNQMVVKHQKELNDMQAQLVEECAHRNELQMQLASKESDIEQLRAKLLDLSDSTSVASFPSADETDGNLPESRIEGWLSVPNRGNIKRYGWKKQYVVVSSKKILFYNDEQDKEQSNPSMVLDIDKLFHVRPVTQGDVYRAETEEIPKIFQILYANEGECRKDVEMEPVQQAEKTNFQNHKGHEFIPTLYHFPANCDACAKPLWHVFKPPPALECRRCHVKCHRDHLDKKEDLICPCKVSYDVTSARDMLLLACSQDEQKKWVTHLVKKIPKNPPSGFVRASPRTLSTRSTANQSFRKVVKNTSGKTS
Source text: as §1

[10] = biological target: VEGFR2 (Homo sapiens, UniProt P35968); assay: SAFETYScan Kinases Binding, Inhibitor
Chain of VEGFR2 (P35968 20-1356, species assumed): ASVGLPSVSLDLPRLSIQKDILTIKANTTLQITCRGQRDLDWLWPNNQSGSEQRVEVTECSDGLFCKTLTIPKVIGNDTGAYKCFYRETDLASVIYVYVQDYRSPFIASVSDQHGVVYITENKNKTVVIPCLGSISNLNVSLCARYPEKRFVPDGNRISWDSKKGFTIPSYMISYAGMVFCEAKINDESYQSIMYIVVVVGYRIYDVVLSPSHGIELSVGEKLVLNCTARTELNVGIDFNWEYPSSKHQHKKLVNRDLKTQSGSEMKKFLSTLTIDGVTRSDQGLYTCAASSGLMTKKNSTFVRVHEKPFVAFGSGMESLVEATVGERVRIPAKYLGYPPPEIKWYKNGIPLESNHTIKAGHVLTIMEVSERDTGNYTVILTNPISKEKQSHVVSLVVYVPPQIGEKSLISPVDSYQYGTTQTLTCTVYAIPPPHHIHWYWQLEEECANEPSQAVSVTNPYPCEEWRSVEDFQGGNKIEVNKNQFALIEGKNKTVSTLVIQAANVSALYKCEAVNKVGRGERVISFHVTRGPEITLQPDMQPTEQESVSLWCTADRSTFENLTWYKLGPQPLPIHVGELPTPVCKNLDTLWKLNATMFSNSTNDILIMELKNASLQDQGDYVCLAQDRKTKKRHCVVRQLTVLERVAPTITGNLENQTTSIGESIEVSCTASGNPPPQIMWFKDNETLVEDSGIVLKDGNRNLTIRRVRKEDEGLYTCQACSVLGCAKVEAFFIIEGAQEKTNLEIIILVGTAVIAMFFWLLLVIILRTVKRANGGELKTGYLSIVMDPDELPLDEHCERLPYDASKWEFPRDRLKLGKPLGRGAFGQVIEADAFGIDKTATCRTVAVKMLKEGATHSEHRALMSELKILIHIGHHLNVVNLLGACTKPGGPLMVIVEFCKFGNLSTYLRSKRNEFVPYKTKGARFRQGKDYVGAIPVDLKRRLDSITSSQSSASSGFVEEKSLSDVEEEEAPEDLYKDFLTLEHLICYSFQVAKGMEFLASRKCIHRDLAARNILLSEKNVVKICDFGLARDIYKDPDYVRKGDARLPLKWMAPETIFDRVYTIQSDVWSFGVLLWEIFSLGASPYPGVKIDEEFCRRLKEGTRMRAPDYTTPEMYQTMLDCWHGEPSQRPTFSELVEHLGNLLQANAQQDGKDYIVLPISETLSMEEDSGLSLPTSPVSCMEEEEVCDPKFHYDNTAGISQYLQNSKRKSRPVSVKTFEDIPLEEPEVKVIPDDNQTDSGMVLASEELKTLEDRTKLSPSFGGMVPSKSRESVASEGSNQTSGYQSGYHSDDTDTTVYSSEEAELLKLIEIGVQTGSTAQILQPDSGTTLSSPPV
Source text: as §1

[11] = Microsomal clearance assay (HLM); assay type: in vitro ADME; conditions: human liver microsomes, 1 μM compound
Protocol: (§2) 6. Supplementary experimental: in vitro DMPK assays
(§3) 6.1 Microsomal clearance assay
(§4) Microsomal clearance was determined in female CD1 mice, female Sprague–Dawley rats, and mixed gender human liver microsomes obtained from BioIVT (Peterborough, U.K.) following incubation of 1 μM compound at 37 °C in 0.5 mg/mL microsomal protein, 3 mmol/L MgCl2, 1 mmol/L NADPH, 2.5 mmol/L and 10 mmol/L phosphate buffer (pH 7.4) (all purchased from Sigma-Aldrich, Gillingham, U.K). Reactions were started by addition of the cofactors following 10 min preincubation of microsomes with test compound and were terminated at −1, 0, 5, 10, 15, and 30 min with three volumes of ice-cold methanol containing internal standard. Samples were centrifuged at 2800g for 30 min at 4 °C and the supernatants analyzed.
(§5) Control incubations were prepared as above with omission of cofactors. Compound measurements were […]
(§6) separation with a 3 min gradient of 0.1% formic acid in methanol on a Kinetex C18, 50 × 2.1 mm 2.6 μm UPLC column (Phenomenex, Macclesfield, UK). […]

[12] = Microsomal clearance assay (RLM); assay type: in vitro ADME; conditions: rat liver microsomes, 1 μM compound
Protocol: as §2, §3, §4, §5, §6

[13] = system: HT DLBCL xenograft; assay: Efficacy study in HT DLBCL xenograft model; assay type: in vivo, mouse
Protocol: single treatment of vehicle.
7.3.3 Preparation of HT Cells […]
subcultured 1:4 every 3-4 days. […]
pharmacokinetic analysis (PK).
7.3.6 Tumour lysis and Wes method
Lysates were incubated on
Samples were stored at -80 °C until use.
Data was analysed using Compass for SW software. BCL6

In the case of C[C@H]1C[C@@H](O)CN(c2ncc(Cl)c(Nc3ccc4c(c3)c3c(c(=O)n4C)OCC(F)(F)[C@H](C4CC4)N3)n2)C1 [12a CCT373566, (S)-10-((5-Chloro-2-((3R,5S)-3-hydroxy-5-methylpiperidin-1-yl)pyrimidin-4-yl)amino)-2-cyclopropyl-3,3-difluoro-7-methyl-1,2,3,4-tetrahydro-[1,4]oxazepino[2,3-c]quinolin-6(7H)-one], the “Karpas 422 GI50” value ([1]; 14-day proliferation assay) is reported as “Very potent growth inhibition”, the GI50 ([1]; Homo sapiens, KARPAS-422, 336 h, read-out: Karpas 422 GI50) is reported as 0.0014 µM and the fraction unbound [2] is reported as 0.0012. It also gave a Dmax ([3]; KARPAS-422, read-out: MSD degrader assay [Karpas 422] Dmax) of 85%, a DC50 ([3]; read-out: MSD degrader assay [Karpas 422] DC50, Karpas 422 cells) of 0.001 µM and a fraction unbound [4] of 0.13. For the same compound, the IC50 [5] was 3.8 nM and 1.9 nM and 1.7 nM and 2.6 nM (3×) and 2.4 nM and 2.9 nM and 1.8 nM (3×) and 1.2 nM and 2.7 nM, the “appearance of mice after dosing” value ([6]; 1 mg/kg i.v. and 5 mg/kg p.o., female Balb/C mice, after dosing and 24 h after dosing) was “appeared normal” and the “increase in free concentration/exposure in vivo compared to CCT369260” value ([6]; 5 mg/kg po, BALB/c mice) was “over fivefold increase”. The Vd ([6]; Balb/C, mouse, whole blood, intravenous, initial PK studies) was 0.47 L/kg, the “CL as % Qh” value ([6]; female Balb/C mice) was 6 % Qh and the bioavailability ([6]; female, Balb/C, mouse, in vivo, po, 5 mg/kg) was 44%. For the same compound, the Vd ([6]; mouse, in vivo, female Balb/C mice) was 0.47 L/kg, the clearance ([6]; mouse, in vivo, iv, female Balb/C mice, 1 mg/kg i.v.) was 5.7 mL/min/kg and the half-life at 6 h ([6]; mouse, in vivo, po, 5 mg/kg, female Balb/C mice) was 1.15 h. It also gave a Cmax ([6]; mouse, in vivo, female Balb/C mice, 1 mg/kg i.v. and 5 mg/kg p.o.) of 3.95 µM, a CLu ([6]; unbound clearance, female Balb/C mice) of 4670 mL/min/kg and an Emax ([7]; read-out: Max Response) of 0%. The IC50 ([7]; read-out: RC50 (IC50)) was over 10 µM, the Emax ([8]; read-out: Max Response) was 1.52% and the IC50 ([8]; read-out: RC50 (IC50)) was over 10 µM. For the same compound, the Emax ([9]; read-out: Max Response) was 14.9%, the IC50 ([9]; read-out: RC50 (IC50)) was over 10 µM and the Emax ([10]; read-out: Max Response) was 15.8%. The IC50 ([10]; read-out: RC50 (IC50)) was over 10 µM, the microsomal CLint at 0.5 h, 1 µM ([11]; both sexes, pH 7.4) was 8 µL/min/mg and the “CLint (HLM)” value [11] was “low clearance”. For the same compound, the microsomal CLint at 0.5 h, 1 µM ([12]; female, Sprague-Dawley, pH 7.4) was 3 µL/min/mg, the “CLint (RLM)” value [12] was “low clearance” and the T/C ([13]; 50 mg/kg BID, 22 days) was 60%. For the same compound, the “BCL6 levels after the last dose” value ([13]; 50 mg/kg po bid for 22 days, 4 h and 12 h after last dose) was “remained decreased 4 h and 12 h after the last dose”, the body weight ([13]; 50 mg/kg po bid, 22 days) was “No body weight losses were observed” and the “tumor growth compared to the vehicle control group” value ([13]; 50 mg/kg po bid, 22 days) was “modest decrease in tumor growth”.

— PMC9234961 (Journal of Medicinal Chemistry, 2022)
